Biological target: T1, recombinant guanylate cyclase reporter cell line (Rattus norvegicus, UniProt P19686+P20595)
T1 construct: expressed in transfected cells
T1 sequence (P19686 1-690): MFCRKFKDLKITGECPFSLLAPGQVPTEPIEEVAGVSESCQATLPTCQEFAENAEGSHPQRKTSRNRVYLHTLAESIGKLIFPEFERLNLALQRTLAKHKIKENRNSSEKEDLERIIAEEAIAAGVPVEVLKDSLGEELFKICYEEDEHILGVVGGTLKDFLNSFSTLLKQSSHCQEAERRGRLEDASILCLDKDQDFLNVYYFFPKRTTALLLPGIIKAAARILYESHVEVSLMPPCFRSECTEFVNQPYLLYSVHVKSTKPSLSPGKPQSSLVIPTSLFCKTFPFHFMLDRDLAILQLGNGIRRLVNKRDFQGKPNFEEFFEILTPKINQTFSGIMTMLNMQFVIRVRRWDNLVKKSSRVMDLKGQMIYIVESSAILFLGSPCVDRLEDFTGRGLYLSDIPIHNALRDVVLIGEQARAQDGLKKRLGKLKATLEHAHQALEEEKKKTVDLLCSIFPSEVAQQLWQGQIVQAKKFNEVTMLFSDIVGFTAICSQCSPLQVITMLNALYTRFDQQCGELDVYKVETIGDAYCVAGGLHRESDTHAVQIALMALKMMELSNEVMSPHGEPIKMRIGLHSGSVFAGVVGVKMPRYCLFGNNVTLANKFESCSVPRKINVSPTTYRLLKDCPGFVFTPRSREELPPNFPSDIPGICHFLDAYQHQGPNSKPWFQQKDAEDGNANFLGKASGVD
T1 sequence (P20595 1-619): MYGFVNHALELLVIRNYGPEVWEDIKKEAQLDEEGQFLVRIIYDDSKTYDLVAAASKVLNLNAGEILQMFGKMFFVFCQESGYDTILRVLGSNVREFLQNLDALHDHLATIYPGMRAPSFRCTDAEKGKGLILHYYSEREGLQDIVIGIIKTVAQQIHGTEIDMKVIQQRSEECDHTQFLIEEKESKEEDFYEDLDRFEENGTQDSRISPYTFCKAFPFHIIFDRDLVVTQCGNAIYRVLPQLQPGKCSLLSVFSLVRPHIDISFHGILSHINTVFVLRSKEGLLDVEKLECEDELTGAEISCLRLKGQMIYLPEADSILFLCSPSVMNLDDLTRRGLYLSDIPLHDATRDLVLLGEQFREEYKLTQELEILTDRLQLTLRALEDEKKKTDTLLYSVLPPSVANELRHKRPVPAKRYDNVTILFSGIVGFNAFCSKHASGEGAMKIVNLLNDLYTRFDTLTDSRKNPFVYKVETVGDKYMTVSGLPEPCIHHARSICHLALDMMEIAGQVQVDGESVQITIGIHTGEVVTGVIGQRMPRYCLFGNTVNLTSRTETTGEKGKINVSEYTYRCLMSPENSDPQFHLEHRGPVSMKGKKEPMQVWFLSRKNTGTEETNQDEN
Assay: Effect on a recombinant guanylate cyclase reporter cell line
Type: cell-based
Conditions: MEC=minimum effective concentration; in some cases as mean values for individual determinations
Method: B-2. Effect on a Recombinant Guanylate Cyclase Reporter Cell Line
The cellular activity of the compounds of the invention is determined using a recombinant guanylate cyclase reporter cell line, as described in F. Wunder et al., Anal Biochem. 339, 104-112 (2005).
Representative MEC values (MEC=minimum effective concentration) for the compounds of the invention are shown in the table below (in some cases as mean values for individual determinations): […]

Row | Structure (SMILES) | MEC [µM]
1 | Cc1cc(OCc2c(F)cccc2F)c2nc(Cl)c(C(=O)NCC(C)(N)CCC(F)(F)F)n2c1 (single isomer, unassigned; enantiomer b) [Example 19, ent-N-(2-Amino-5,5,5-trifluoro-2-methylpentyl)-2-chloro-8-[(2,6-difluorobenzyl)oxy]-6-methylimidazo[1,2-a]pyridine-3-carboxamide (enantiomer B)] | 0.07
2 | CCC(C)(N)CNC(=O)c1c(Cl)nc2c(OCc3c(F)cccc3F)cc(C)cn12 (single isomer, unassigned; enantiomer b) [Example 22, ent-N-(2-Amino-2-methylbutyl)-2-chloro-8-[(2,6-difluorobenzyl)oxy]-6-methylimidazo[1,2-a]pyridine-3-carboxamide (enantiomer B)] | 0.1
3 | CCCC(C)(N)CNC(=O)c1c(Cl)nc2c(OCc3c(F)cccc3F)cc(C)cn12 (single isomer, unassigned; enantiomer b) [Example 25, ent-N-(2-Amino-2-methylpentyl)-2-chloro-8-[(2,6-difluorobenzyl)oxy]-6-methylimidazo[1,2-a]pyridine-3-carboxamide (enantiomer B)] | 0.3
4 | CCC(C)(N)CNC(=O)c1c(OC)nc2c(OCc3c(F)cccc3F)cc(C)cn12 (single isomer, unassigned; enantiomer b) [Example 26, ent-N-(2-Amino-2-methylbutyl)-8-[(2,6-difluorobenzyl)oxy]-2-methoxy-6-methylimidazo[1,2-a]pyridine-3-carboxamide (enantiomer B)] | 2.0
5 | COc1nc2c(OCc3c(F)cccc3F)cc(C)cn2c1C(=O)NCC(C)(N)CCC(F)(F)F (single isomer, unassigned; enantiomer b) [Example 27, ent-N-(2-Amino-5,5,5-trifluoro-2-methylpentyl)-8-[(2,6-difluorobenzyl)oxy]-2-methoxy-6-methylimidazo[1,2-a]pyridine-3-carboxamide (enantiomer B)] | 3.0
6 | Cc1cc(OCc2c(F)cccc2F)c2nc(Cl)c(C(=O)NC(CCC(F)(F)C(F)(F)F)C(C)(C)O)n2c1 (single isomer, unassigned; ent-2) [Example 28, ent-2-Chloro-8-[(2,6-difluorobenzyl)oxy]-6-methyl-N-(6,6,7,7,7-pentafluoro-2-hydroxy-2-methylheptan-3-yl)imidazo[1,2-a]pyridine-3-carboxamide (enantiomer A)] | 0.03
7 | CCCC[C@H](CO)NC(=O)c1c(OC)nc2c(OCc3c(F)cccc3F)cc(C)cn12 [Example 29, 8-[(2,6-Difluorobenzyl)oxy]-N-[(2R)-1-hydroxyhexan-2-yl]-2-methoxy-6-methylmidazo[1,2-a]pyridine-3-carboxamide] | 0.55

From patent publication US20170050961A1, “IMIDAZO[1,2-A]PYRIDINES AS SOLUBLE GUANYLATE CYCLASE STIMULATORS FOR THE TREATMENT OF CARDIOVASCULAR DISEASES” (BAYER PHARMA AKTIENGESELLSCHAFT, priority 2014, published 2017)
